The text below walks through data of patent publication US10758534B2 (Vertex Pharmaceuticals Incorporated, priority 2014, dated 2020).

The target of the test is T1, F508del (Homo sapiens, UniProt P13569, DEL508-508).
T1 construct: expressed in transfected cells
Kind of test: Protocol 1: membrane potential optical assay (FLIPR III, voltage sensing dye), identification of potentiator compounds. Format: cell-based. Particulars: Table 3, compounds of Table 1. The source says: Membrane Potential Optical Methods for Assaying F508del Modulation Properties of Compounds
The assay utilizes fluorescent voltage sensing dyes to measure changes in membrane potential using a fluorescent plate reader (e.g., FLIPR III, Molecular Devices, Inc.) as a readout for increase in functional F508del in NIH 3T3 cells. The driving force for the response is the creation of a chloride ion gradient in conjunction with channel activation by a single liquid addition step after the cells have previously been treated with compounds and subsequently loaded with a voltage sensing dye.
Identification of Potentiator Compounds
To identify potentiators of F508del, a double-addition HTS assay format was developed. This HTS assay utilizes fluorescent voltage sensing dyes to measure changes in membrane potential on the FLIPR III as a measurement for increase in gating (conductance) of F508del in temperature-corrected F508del NIH 3T3 cells. The driving force for the response is a Cl^− ion gradient in conjunction with channel activation with forskolin in a single liquid addition step using a fluorescent plate reader such as FLIPR III after the cells have previously been treated with potentiator compounds (or DMSO vehicle control) and subsequently loaded with a redistribution dye.
Bath Solution #1: (in mM) NaCl 160, KCl 4.5, CaCl2 2, MgCl2 1, HEPES 10, pH 7.4 with NaOH.
Chloride-free bath solution: Chloride salts in Bath Solution #1 (above) are substituted with gluconate salts.
NIH3T3 mouse fibroblasts stably expressing F508del are used for optical measurements of membrane potential. The cells are maintained at 37° C. in 5% CO2 and 90% humidity in Dulbecco's modified Eagle's medium supplemented with 2 mM glutamine, 10% fetal bovine serum, 1×NEAA, β-ME, 1× pen/strep, and 25 mM HEPES in 175 cm^2 culture flasks. For all optical assays, the cells were seeded at ˜20,000/well in 384-well matrigel-coated plates and cultured for 2 hrs at 37° C. before culturing at 27° C. for 24 hrs. for the potentiator assay. For the correction assays, the cells are cultured at 27° C. or 37° C. with and without compounds for 16-24 hours.

T1 sequence (P13569 with tags, fused parts or gaps DEL508-508): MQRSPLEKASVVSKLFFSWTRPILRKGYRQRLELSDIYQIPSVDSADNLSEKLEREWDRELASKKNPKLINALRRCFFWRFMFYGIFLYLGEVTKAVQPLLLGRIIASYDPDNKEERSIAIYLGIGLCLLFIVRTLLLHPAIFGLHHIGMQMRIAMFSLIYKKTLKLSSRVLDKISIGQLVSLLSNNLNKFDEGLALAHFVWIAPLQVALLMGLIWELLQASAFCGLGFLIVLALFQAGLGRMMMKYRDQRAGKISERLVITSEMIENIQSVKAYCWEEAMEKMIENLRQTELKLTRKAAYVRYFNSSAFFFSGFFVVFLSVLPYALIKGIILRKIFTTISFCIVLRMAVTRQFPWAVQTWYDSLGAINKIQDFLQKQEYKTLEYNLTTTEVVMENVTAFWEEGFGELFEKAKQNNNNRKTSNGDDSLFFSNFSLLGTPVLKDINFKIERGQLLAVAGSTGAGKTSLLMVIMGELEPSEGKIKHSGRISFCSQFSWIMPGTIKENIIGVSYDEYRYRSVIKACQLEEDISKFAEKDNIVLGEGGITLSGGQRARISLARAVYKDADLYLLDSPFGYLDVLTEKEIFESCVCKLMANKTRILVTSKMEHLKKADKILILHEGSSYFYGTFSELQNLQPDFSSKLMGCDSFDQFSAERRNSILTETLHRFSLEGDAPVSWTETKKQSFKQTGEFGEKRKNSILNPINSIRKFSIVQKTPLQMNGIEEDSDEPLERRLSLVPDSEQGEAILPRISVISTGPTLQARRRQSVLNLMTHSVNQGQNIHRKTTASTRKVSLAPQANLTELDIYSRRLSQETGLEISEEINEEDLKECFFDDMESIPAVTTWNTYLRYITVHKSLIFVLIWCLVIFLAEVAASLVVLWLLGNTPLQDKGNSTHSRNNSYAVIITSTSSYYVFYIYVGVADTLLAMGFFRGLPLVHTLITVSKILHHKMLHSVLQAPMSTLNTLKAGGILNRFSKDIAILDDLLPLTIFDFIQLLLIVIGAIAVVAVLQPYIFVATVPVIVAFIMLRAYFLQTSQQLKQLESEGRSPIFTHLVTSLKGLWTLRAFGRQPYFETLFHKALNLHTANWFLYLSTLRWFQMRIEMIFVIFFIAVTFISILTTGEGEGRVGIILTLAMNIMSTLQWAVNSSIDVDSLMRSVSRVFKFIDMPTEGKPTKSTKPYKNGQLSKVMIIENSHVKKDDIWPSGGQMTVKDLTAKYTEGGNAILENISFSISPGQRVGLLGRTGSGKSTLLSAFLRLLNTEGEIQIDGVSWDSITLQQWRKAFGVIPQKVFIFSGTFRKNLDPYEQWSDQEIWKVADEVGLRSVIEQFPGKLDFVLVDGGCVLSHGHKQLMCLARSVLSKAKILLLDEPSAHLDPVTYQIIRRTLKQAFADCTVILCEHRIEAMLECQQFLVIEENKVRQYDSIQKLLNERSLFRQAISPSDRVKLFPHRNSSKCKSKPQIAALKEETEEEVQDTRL

Take `CC(C)Oc1ccc(-c2ccc(C(=O)NS(=O)(=O)c3cccc(N)n3)c(N3CCCC(C)(C)C3)n2)cn1` [Compound 1283, N-[(6-amino-2-pyridyl)sulfonyl]-2-(3,3-dimethyl-1-piperidyl)-6-(6-isopropoxy-3-pyridyl)pyridine-3-carboxamide]: the EC30 entry is on record as “+++ (“+++” means <3 uM)”.

Consider `CCOc1ccc(-c2ccc(C(=O)NS(=O)(=O)c3ccc[nH]c3=O)c(Oc3c(C)cc(C)cc3C)n2)cn1` [Compound 932, 6-(6-ethoxy-3-pyridyl)-N-[(2-oxo-1H-pyridin-3-yl)sulfonyl]-2-(2,4,6-trimethylphenoxy)pyridine-3-carboxamide], for which the EC30 entry is reported as “+ (“+” means greater than 10 uM)”.

As to `Cc1cc(C)c(Oc2nc(C3CCCC3)ccc2C(=O)NS(=O)(=O)c2cccc(N)n2)c(C)c1` [Compound 1280, N-[(6-amino-2-pyridyl)sulfonyl]-6-cyclopentyl-2-(2,4,6-trimethylphenoxy)pyridine-3-carboxamide], the EC30 entry was “+++ (“+++” means <3 uM)”.

For `CCCOc1ccc(-c2ccc(C(=O)NS(=O)(=O)c3ccc[nH]c3=O)c(Oc3c(C)cc(C)cc3C)n2)cc1F` [Compound 1022, 6-(3-fluoro-4-propoxy-phenyl)-N-[(2-oxo-1H-pyridin-3-yl)sulfonyl]-2-(2,4,6-trimethylphenoxy)pyridine-3-carboxamide], the EC30 result is “++ (“++” means between 3 uM and 10 uM)”.

Take `CC(C)COc1cc(F)cc(-c2ccc(C(=O)NS(=O)(=O)c3cccc(N)n3)c(OCCC(C)c3ccccc3)n2)c1` (centres unmarked) [Compound 1689, N-[(6-amino-2-pyridyl)sulfonyl]-6-(3-fluoro-5-isobutoxy-phenyl)-2-(3-phenylbutoxy)pyridine-3-carboxamide]: the EC30 result is listed as “+++ (“+++” means <3 uM)”.

For the molecule `CC(C)COc1cc(F)cc(-c2ccc(C(=O)NS(=O)(=O)c3cccc(N)n3)c(OC3(C)CCC3)n2)c1` [Compound 1644, N-[(6-amino-2-pyridyl)sulfonyl]-6-(3-fluoro-5-isobutoxy-phenyl)-2-(1-methylcyclobutoxy)pyridine-3-carboxamide], the EC30 entry is on record as “+++ (“+++” means <3 uM)”.

With `Cc1ccccc1-c1nc(C(C)(C)C)ccc1C(=O)NS(=O)(=O)c1cccc(N)c1` [Compound 1036, N-(3-aminophenyl)sulfonyl-6-tert-butyl-2-(o-tolyl)pyridine-3-carboxamide], the EC30 entry is “+ (“+” means greater than 10 uM)”.

In the case of `Cc1cc(C)c(Oc2nc(-c3ccccc3)cc(C)c2C(=O)NS(=O)(=O)c2cccc(N)n2)c(C)c1` [Compound 1102, N-[(6-amino-2-pyridyl)sulfonyl]-4-methyl-6-phenyl-2-(2,4,6-trimethylphenoxy)pyridine-3-carboxamide], the EC30 entry is “+++ (“+++” means <3 uM)”.

Consider `CC1CN(c2nc(-c3ccc(OC(C)C)cc3)ccc2C(=O)NS(=O)(=O)c2cccc(N)n2)C(C)(C)C1` (centres unmarked) [Compound 1020, N-[(6-amino-2-pyridyl)sulfonyl]-6-(4-isopropoxyphenyl)-2-(2,2,4-trimethylpyrrolidin-1-yl)pyridine-3-carboxamide], for which the EC30 result was “+++ (“+++” means <3 uM)”.

Turning to `CC(C)Oc1ccc(-c2ccc(C(=O)NS(=O)(=O)c3cccc(N)n3)c(N3CC4CCCC4C3)n2)cn1` (centres unmarked) [Compound 1107, 2-(3,3a,4,5,6,6a-hexahydro-1H-cyclopenta[c]pyrrol-2-yl)-N-[(6-amino-2-pyridyl)sulfonyl]-6-(6-isopropoxy-3-pyridyl)pyridine-3-carboxamide], the EC30 result is reported as “+++ (“+++” means <3 uM)”.

Regarding `CC(C)Oc1ccc(-c2ccc(C(=O)NS(=O)(=O)c3cccc(N)n3)c(NC3CCc4ccccc43)n2)cn1` (centres unmarked) [Compound 935, N-[(6-amino-2-pyridyl)sulfonyl]-2-(indan-1-ylamino)-6-(6-isopropoxy-3-pyridyl)pyridine-3-carboxamide], the EC30 entry is “++ (“++” means between 3 uM and 10 uM)”.

Consider `C[C@@H]1CN(c2nc(-c3cc(F)cc(F)c3F)ccc2C(=O)NS(=O)(=O)c2ccc[nH]c2=O)C(C)(C)C1` [Compound 1837, N-[(2-oxo-1H-pyridin-3-yl)sulfonyl]-6-(2,3,5-trifluorophenyl)-2-[(4S)-2,2,4-trimethylpyrrolidin-1-yl]pyridine-3-carboxamide], for which the EC30 result was “+++ (“+++” means <3 uM)”.

Turning to `CC(C)COc1cccc(-c2ccc(C(=O)NS(=O)(=O)c3cccc(N)n3)c(N3C[C@@H](C)CC3(C)C)n2)c1` [Compound 1969, N-[(6-amino-2-pyridyl)sulfonyl]-6-(3-isobutoxyphenyl)-2-[(4S)-2,2,4-trimethylpyrrolidin-1-yl]pyridine-3-carboxamide], the EC30 entry is “+++ (“+++” means <3 uM)”.

Regarding `CC1CCCN(c2nc(C(C)(C)C)ccc2C(=O)NS(=O)(=O)c2cccc(N)n2)C1` (centres unmarked) [Compound 1008, N-[(6-amino-2-pyridyl)sulfonyl]-6-tert-butyl-2-(3-methyl-1-piperidyl)pyridine-3-carboxamide], the EC30 entry is “+++ (“+++” means <3 uM)”.

With `CC(C)COc1cc(F)cc(-c2ccc(C(=O)NS(=O)(=O)c3ccn[nH]3)c(N3CCC[C@@H](c4ccccc4)C3)n2)c1` [Compound 912, 6-(3-fluoro-5-isobutoxy-phenyl)-2-[(3S)-3-phenyl-1-piperidyl]-N-(1H-pyrazol-5-ylsulfonyl)pyridine-3-carboxamide], the EC30 result is recorded as “+++ (“+++” means <3 uM)”.

On to `Cc1cc(C)c(Oc2nc(-c3cnc(N4CCCC4)nc3)ccc2C(=O)NS(=O)(=O)c2cccc(N)n2)c(C)c1` [Compound 1275, N-[(6-amino-2-pyridyl)sulfonyl]-6-(2-pyrrolidin-1-ylpyrimidin-5-yl)-2-(2,4,6-trimethylphenoxy)pyridine-3-carboxamide], for which the EC30 result is “+++ (“+++” means <3 uM)”.

For `CCN(CC)c1ncc(-c2ccc(C(=O)NS(=O)(=O)c3cccc(N)n3)c(N3C[C@@H](C)CC3(C)C)n2)cc1C` [Compound 1915, N-[(6-amino-2-pyridyl)sulfonyl]-6-[6-(diethylamino)-5-methyl-3-pyridyl]-2-[(4S)-2,2,4-trimethylpyrrolidin-1-yl]pyridine-3-carboxamide], the EC30 result was “+++ (“+++” means <3 uM)”.

For `CC1CN(c2ncccc2C(=O)NS(=O)(=O)c2cccc(OCC3CCCO3)n2)C(C)(C)C1` (centres unmarked) [Compound 1764, N—[[6-(tetrahydrofuran-2-ylmethoxy)-2-pyridyl]sulfonyl]-2-(2,2,4-trimethylpyrrolidin-1-yl)pyridine-3-carboxamide], the EC30 result was “++ (“++” means between 3 uM and 10 uM)”.

For the molecule `CC(C)COc1cc(F)cc(-c2ccc(C(=O)NS(=O)(=O)c3cccc(N)n3)c(N3CCC(Cc4ccccc4)C3C)n2)c1` (centres unmarked) [Compound 969, N-[(6-amino-2-pyridyl)sulfonyl]-2-(3-benzyl-2-methyl-pyrrolidin-1-yl)-6-(3-fluoro-5-isobutoxy-phenyl)pyridine-3-carboxamide], the EC30 result is “+++ (“+++” means <3 uM)”.

Take `CC1CN(c2ncccc2C(=O)NS(=O)(=O)c2cccc(OCC3CCNC3)n2)C(C)(C)C1` (centres unmarked) [Compound 1734, N—[[6-(pyrrolidin-3-ylmethoxy)-2-pyridyl]sulfonyl]-2-(2,2,4-trimethylpyrrolidin-1-yl)pyridine-3-carboxamide]: the EC30 result was “+++ (“+++” means <3 uM)”.
